Experimental data taken from patent US20120270237A9, “METHODS FOR THE IDENTIFICATION OF KINASE INTERACTING MOLECULES AND FOR THE PURIFICATION OF KINASE PROTEINS” (Cellzone AG, priority 2009, published 2012).

How the values were obtained:
Assay in all cases: Kinobeads competition binding, L-363 cell lysate
Set-up in all cases: endogenous in cells
Settings in all cases: 10 μM free compound, L-363 lysate
[1] = biological target: BIKE (Homo sapiens, UniProt Q9NSY1)
How it was run: (§1)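 MG132-pretreated (20 μM, 3 h) L-363 lysate; 10 μM cpd vs DMSO; immobilized-cpd bead capture; SDS-PAGE, tryptic digest, iTRAQ 114/117; LC-MS/MS reporter quant.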

[2] = biological target: CDK9 (Homo sapiens, UniProt P50750)
How it was run: as §1

[3] = biological target: CK2a2 (Homo sapiens, UniProt P19784)
How it was run: as §1

[4] = biological target: Erk2 (Homo sapiens, UniProt P28482)
How it was run: as §1

[5] = biological target: T1, MAP3K2 (Homo sapiens, UniProt Q9Y2U5)
T1 sequence (Q9Y2U5 1-619): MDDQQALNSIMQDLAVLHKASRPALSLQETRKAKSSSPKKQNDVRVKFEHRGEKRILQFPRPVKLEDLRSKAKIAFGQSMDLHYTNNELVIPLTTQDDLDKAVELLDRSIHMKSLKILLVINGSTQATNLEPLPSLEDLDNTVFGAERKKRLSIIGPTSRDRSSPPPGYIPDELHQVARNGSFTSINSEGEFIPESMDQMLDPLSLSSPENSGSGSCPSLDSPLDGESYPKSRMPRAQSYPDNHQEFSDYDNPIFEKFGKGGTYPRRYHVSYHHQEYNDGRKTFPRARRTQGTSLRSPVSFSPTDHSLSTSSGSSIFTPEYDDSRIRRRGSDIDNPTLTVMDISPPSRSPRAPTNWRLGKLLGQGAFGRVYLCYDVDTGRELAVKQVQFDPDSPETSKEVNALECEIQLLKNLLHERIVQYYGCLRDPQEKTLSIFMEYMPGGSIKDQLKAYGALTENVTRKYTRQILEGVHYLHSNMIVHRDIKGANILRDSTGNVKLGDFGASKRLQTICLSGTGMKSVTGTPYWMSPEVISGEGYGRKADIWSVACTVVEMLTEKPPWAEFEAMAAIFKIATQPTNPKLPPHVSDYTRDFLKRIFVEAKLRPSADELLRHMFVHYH
How it was run: as §1

[6] = biological target: MSK2 (Homo sapiens, UniProt O75676)
How it was run: as §1

[7] = biological target: PKN1 (Homo sapiens, UniProt Q16512)
How it was run: as §1

[8] = biological target: QIK (Homo sapiens, UniProt Q9H0K1)
How it was run: as §1

[9] = biological target: RSK2 (Homo sapiens, UniProt P51812)
How it was run: as §1

[10] = biological target: RSK3 (Homo sapiens, UniProt Q15349)
How it was run: as §1

[11] = biological target: T2, TAO3 (Homo sapiens, UniProt Q9H2K8)
T2 sequence (Q9H2K8 1-898): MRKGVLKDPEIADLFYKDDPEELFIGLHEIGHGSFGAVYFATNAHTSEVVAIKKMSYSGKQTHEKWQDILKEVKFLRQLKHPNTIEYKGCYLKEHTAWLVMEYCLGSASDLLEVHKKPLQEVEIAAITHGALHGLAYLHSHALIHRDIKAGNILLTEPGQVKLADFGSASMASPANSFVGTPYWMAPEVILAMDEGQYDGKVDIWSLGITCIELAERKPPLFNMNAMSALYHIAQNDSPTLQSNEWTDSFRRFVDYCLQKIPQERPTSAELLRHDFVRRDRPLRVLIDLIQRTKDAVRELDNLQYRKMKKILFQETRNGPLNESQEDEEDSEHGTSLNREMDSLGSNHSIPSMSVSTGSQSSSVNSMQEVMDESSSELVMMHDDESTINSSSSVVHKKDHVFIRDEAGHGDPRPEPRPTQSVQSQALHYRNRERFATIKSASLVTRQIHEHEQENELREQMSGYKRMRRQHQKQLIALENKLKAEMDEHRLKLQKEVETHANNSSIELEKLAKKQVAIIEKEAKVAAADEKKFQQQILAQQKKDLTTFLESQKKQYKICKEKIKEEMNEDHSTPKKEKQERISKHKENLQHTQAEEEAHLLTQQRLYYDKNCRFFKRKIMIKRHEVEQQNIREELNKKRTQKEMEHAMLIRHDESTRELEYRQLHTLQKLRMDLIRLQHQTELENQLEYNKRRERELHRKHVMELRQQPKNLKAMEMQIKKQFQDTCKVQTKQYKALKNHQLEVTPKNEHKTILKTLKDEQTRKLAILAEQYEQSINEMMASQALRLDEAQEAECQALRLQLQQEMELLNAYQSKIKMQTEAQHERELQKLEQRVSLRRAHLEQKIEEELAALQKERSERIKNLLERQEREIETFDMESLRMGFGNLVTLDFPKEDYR
How it was run: as §1

inhibition at 10 µM [1]: 97%
inhibition at 10 µM [2]: 97.7%
inhibition at 10 µM [3]: 97.5%
inhibition at 10 µM [4]: 74.4%
inhibition at 10 µM [5]: 96%
inhibition at 10 µM [6]: 94.2%
inhibition at 10 µM [7]: 95.9%
inhibition at 10 µM [8]: 96.5%
inhibition at 10 µM [9]: 97.7%
inhibition at 10 µM [10]: 96.9%
inhibition at 10 µM [11]: 94.7%
Structure (SMILES): CS(=O)(=O)Nc1ccccc1Nc1nc(Nc2cccc(OCCN)c2)ncc1Cl [CZC31326, N-(2-(2-(3-(2-aminoethoxy)phenylamino)-5-chloropyrimidin-4-ylamino)phenyl)methanesulfonamide]
